For series [1], the target named is P-glycoprotein (Homo sapiens, UniProt P08183). In words: P-glycoprotein efflux substrate. It is filed as in vitro ADME. To be noted: not told.
Series [2] is described as follows: Blood-brain barrier penetration (brain tissue to plasma concentration ratio). It counts as in vivo. To be noted: ratio of concentration in brain tissue to plasma; rats or mice, four hours after dosing. As for the experimental part:
Four hours after dosing, rats or mice were sacrificed, blood and brain tissue were collected and the concentration of the test compound was analyzed. Brain permeation is defined as the ratio of the concentration of the compound in the brain tissue to the concentration in the plasma. P-glycoprotein and BCRP (Breast Cancer Resistance Protein) are the blood-brain barrier efflux proteins, the P-glycoprotein substrate (Efflux ratio>1.5) and/or BCRP substrate (Efflux ratio>1.5) is out of the brain.

Series [3] concerns the target T1, BCRP (Homo sapiens, UniProt Q9UNQ0).
T1 sequence (Q9UNQ0 1-655): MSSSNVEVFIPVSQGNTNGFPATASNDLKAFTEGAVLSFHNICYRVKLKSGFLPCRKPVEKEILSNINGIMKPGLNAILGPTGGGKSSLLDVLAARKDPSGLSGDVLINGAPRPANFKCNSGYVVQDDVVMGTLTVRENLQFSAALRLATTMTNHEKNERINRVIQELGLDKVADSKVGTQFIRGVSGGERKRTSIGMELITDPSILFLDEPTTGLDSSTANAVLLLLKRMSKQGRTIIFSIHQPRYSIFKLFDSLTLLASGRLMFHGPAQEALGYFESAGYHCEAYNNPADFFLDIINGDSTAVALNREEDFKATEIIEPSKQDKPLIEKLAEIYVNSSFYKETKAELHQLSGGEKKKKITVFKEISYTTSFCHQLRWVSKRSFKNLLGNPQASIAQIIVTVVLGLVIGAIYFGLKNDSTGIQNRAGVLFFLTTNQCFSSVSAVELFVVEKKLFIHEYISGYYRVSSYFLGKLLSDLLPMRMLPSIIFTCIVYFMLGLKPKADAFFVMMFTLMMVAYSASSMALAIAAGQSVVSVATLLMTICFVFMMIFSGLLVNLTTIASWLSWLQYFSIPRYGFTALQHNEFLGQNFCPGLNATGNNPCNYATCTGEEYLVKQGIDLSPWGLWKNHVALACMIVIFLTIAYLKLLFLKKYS
In words: BCRP efflux substrate. It counts as in vitro ADME. To be noted: not told.

Bounds are passed on as bounds.

P-glycoprotein, sequence (P08183 whole entry): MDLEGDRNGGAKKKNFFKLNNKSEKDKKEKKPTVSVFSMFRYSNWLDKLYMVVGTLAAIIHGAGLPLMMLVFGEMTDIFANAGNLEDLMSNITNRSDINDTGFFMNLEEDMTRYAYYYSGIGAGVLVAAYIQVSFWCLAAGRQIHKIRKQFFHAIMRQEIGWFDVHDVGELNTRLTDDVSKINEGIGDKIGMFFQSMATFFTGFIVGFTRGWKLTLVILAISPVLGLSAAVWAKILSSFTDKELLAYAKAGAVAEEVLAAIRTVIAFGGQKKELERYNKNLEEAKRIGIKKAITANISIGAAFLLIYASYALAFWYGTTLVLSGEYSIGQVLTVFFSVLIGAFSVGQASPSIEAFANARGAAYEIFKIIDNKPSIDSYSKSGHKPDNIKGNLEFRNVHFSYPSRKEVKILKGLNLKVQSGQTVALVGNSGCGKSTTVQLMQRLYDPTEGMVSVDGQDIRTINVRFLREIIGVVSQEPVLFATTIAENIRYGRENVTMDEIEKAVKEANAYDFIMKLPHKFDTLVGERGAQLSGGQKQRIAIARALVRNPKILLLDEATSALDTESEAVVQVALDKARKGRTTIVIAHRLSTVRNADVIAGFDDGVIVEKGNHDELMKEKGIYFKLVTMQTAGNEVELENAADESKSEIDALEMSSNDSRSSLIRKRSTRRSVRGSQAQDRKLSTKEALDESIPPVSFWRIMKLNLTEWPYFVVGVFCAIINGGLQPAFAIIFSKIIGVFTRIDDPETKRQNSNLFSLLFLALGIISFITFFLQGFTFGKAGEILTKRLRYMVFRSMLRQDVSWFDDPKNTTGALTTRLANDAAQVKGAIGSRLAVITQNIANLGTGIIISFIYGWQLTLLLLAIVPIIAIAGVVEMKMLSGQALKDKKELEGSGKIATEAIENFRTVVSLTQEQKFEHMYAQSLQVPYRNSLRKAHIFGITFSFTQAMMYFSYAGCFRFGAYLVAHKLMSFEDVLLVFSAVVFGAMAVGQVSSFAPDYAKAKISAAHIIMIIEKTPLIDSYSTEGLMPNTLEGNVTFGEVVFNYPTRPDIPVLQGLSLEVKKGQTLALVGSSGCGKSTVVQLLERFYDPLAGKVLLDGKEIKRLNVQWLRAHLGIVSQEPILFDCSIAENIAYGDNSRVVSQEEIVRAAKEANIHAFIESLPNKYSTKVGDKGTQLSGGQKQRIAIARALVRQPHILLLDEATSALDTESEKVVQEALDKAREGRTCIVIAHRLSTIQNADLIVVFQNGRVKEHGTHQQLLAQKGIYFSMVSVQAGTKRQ

On to `COc1ccc(-c2ccc3ncc4c(c3c2)n([C@H]2CCN(C(C)C)CC2(F)F)c(=O)n4C)cn1` [Compound 30, (S)-1-(3,3-difluoro-1-isopropylpiperidin-4-yl)-8-(6-methoxypyridin-3-yl)-3-methyl-1,3-dihydro-2H-imidazo[4,5-c]quinolin-2-one], for which the efflux ratio in series [1] and in series [3] was less than 1 throughout. For the same compound, the Kp (usually tissue or fluid exposure divided by exposure in the circulation) at 4 h in series [2] was greater than 0.3.
Take `CCOc1ccc(-c2ccc3ncc4c(c3c2)n([C@H]2CCN(C)CC2(F)F)c(=O)n4C)cn1` [Compound 31, (S)-1-(3,3-difluoro-1-methylpiperidin-4-yl)-8-(6-ethoxypyridin-3-yl)-3-methyl-1,3-dihydro-2H-imidazo[4,5-c]quinolin-2-one]: the efflux ratio in series [1] and in series [3] was less than 1 each time. In addition, the Kp at 4 h in series [2] is greater than 0.3.
Consider `COc1ccc(-c2cc3c(cc2F)ncc2c3n([C@H]3CCN(C)CC3(F)F)c(=O)n2C)cn1` [Compound 32, (S)-1-(3,3-difluoro-1-methylpiperidin-4-yl)-7-fluoro-8-(6-methoxypyridin-3-yl)-3-methyl-1,3-dihydro-2H-imidazo[4,5-c]quinolin-2-one], for which the efflux ratio in series [1] and in series [3] was less than 1 each time. Besides, the partition ratio (Kp) at 4 h in series [2] is greater than 0.3.
With `CC(C)Oc1ccc(-c2ccc3ncc4c(c3c2)n([C@H]2CCN(C)CC2(F)F)c(=O)n4C)cn1` [Compound 34, (S)-1-(3,3-difluoro-1-methylpiperidin-4-yl)-8-(6-isopropoxypyridin-3-yl)-3-methyl-1,3-dihydro-2H-imidazo[4,5-c]quinolin-2-one], the efflux ratio in series [1] and in series [3] was less than 1 in each case. The Kp at 4 h in series [2] is greater than 0.3.
Regarding `CN1CC[C@H](n2c(=O)n(C)c3cnc4ccc(-c5ccc(N(C)C)nc5)cc4c32)C(F)(F)C1` [Compound 35, (S)-1-(3,3-difluoro-1-methylpiperidin-4-yl)-8-(6-(dimethylamino)pyridin-3-yl)-3-methyl-1,3-dihydro-2H-imidazo[4,5-c]quinolin-2-one], the efflux ratio in series [1] and in series [3] was less than 1 each time. Further, in series [2], the partition ratio (Kp) at 4 h is greater than 0.3.
Turning to `CN1CC[C@H](n2c(=O)n(C)c3cnc4ccc(-c5ccc(OC6CC6)nc5)cc4c32)C(F)(F)C1` [Compound 37, (S)-8-(6-cyclopropoxypyridin-3-yl)-1-(3,3-difluoro-1-methylpiperidin-4-yl)-3-methyl-1,3-dihydro-2H-imidazo[4,5-c]quinolin-2-one], the efflux ratio in series [1] and in series [3] was less than 1 each time. In addition, the Kp at 4 h in series [2] is greater than 0.3.
As for `CN1CC[C@H](n2c(=O)n(C)c3cnc4ccc(-c5ccc(N6CC(N(C)C)C6)nc5)cc4c32)C(F)(F)C1` [Compound 38, (S)-1-(3,3-difluoro-1-methylpiperidin-4-yl)-8-(6-(3-(dimethylamino)azetidin-1-yl)pyridin-3-yl)-3-methyl-1,3-dihydro-2H-imidazo[4,5-c]quinolin-2-one], the efflux ratio in series [1] and in series [3] was less than 1 each time. For the same compound, the Kp at 4 h in series [2] is greater than 0.3.
For `CN1CC[C@H](n2c(=O)n(C)c3cnc4ccc(-c5ccc(N6C[C@@H]7[C@H]6CCN7C)nc5)cc4c32)C(F)(F)C1` [Compound 40], the efflux ratio in series [1] and in series [3] was less than 1 in each case. The Kp at 4 h in series [2] is greater than 0.3.
For the compound `CN1CC[C@H](n2c(=O)n(C)c3cnc4ccc(-c5ccc(N6C[C@H]7[C@@H]6CCN7C)nc5)cc4c32)C(F)(F)C1` [Compound 41], the efflux ratio in series [1] and in series [3] was less than 1 each time. The Kp at 4 h in series [2] was greater than 0.3.

(Values after patent US11919899B2, “Substituted 1-(3,3-difluoropiperidin-4-yl)-imidazo[4,5-c] quinolin-2-one compounds with blood-brain barrier penetrable capability” (priority 2020, dated 2024).)
